US9630991B2, “βsheet tapes ribbons in tissue engineering” (University of Leeds, priority 2002, dated 2017)
“Also recorded” adds a separate entry of the source. Structures can show the parent of a compound that is named as a salt. Where a SMILES comes first, the peptide text is derived from it. Where no end group is shown, it is not given here. [ ]: non-standard residue; d: D form. Orn = NCCC[C@H](N)C(=O)O

Key:
[1] = Net charge of peptide at pH 7.5 in physiological solution; type: physicochemical; settings: per peptide, pH 7.5, physiological solution
[2] = Fibril dimensions measured from TEM images; type: physicochemical; settings: physiological conditions, TEM
Procedure: For, electron microscopy, samples were examined using a Phillips CM10 TEM at 80-100 kV accelerating voltage. Gels were diluted to a peptide concentration of 20 μM seconds before application to a glow-discharged, carbon-coated, copper grid followed by coating with uranyl acetate solution (4% w/v in water).
The dimensions of the fibrils formed by these peptides are given in Table 2, and TEM images from which these measurements were obtained are shown in FIGS. 6A-6D. These dimensions are—the length of a peptide fibril (contour length, L), the length of a peptide fibril before it curves (persistence length, l), the length of a full twist of a peptide fibril (twist pitch, h) the width of a fibril at its widest point (ww) and the width of the fibril at its narrowest point as it twists (wn).

[3] = test system: L929 fibroblast cells; assay: Cell density in peptide gels by ATPLite assay; type: cell-based, murine
Source text: After establishing that the peptides tested were not cytotoxic when placed in culture with L929 fibroblast cells, the next stage was assessing the suitability of the collagen peptide gels for use in supporting cell proliferation.

[4] = Self-assembly and gel formation in physiological solution / cell media; type: physicochemical; settings: for peptide concentration for self-supporting gel: physiological conditions
Source text: A large number (dozens) of systematically varied peptides (typically 7-30 residues long) have been studied for soluble polymer and gel formation in cell media. […] Only peptides with a approximate net +2 or −2 charge per peptide at physiological pH=7.5, were able to form soluble polymers and gel cell media (The amount of net charge necessary per peptide to keep its polymers soluble in cell media will vary depending on the overall surface properties and solubility of the peptide tapes it forms). […] These peptides retained a predominantly monomeric state and their solutions in cell media were fluids up to around 40 mg/ml peptide concentration.
The rationally designed peptide P11-8 (Tables 1A and 1C) was dissolved in 145 mM NaCl, pH˜7.5 aqueous solution (the ionic strength and pH values of the solution were similar to those present in cell culture medium) or it was added directly in cell culture medium.
The fibrils of P11-8 entwined partly with each other forming a three dimensional network and turned the peptide solution in cell media into a homogeneous self-supporting gel at peptide concentration higher than 15 mg/ml.
The gel could be temporarily broken by mechanical agitation. The time it took the gel to reform depended on the peptide concentration, ranging from seconds for a 35 mg/ml peptide gel, to hours for a 15 mg/ml peptide gel.

[5] = test system: tissue surrounding the injection site; design: species or system mice; settings: mouse, in vivo
Source text: Injection of P11-3 and P11-8 peptide solutions in cell media in mice has shown no effect of the presence of the peptide in the tissue surrounding the injection site as judged by histology after two and eight weeks following the peptide injection.

Molecule: CC(=O)N[C@@H](CO)C(=O)N[C@@H](CO)C(=O)N[C@@H](CCCNC(=N)N)C(=O)N[C@@H](Cc1ccccc1)C(=O)N[C@@H](CCC(=O)O)C(=O)N[C@@H](Cc1c[nH]c2ccccc12)C(=O)N[C@@H](CCC(=O)O)C(=O)N[C@@H](Cc1ccccc1)C(=O)N[C@@H](CCC(=O)O)C(=O)N[C@@H](CO)C(=O)N[C@@H](CO)C(N)=O [Peptide P11-9, CH3CO-S-S-R-F-E-W-E-F-E-S-S-NH2] (Ac-SSRFEWEFESS-NH2)
- Net charge at pH 7.5 [1]: −2
- L, fibril contour length [2]: 1.1-5 μm
- h, twist pitch [2]: 118-236 nm
- l, fibril persistence length [2]: 0.4-1.3 μm
- wn, width of the fibril at its narrowest point [2]: 3.5-7 nm
- ww, width of the fibril at its widest point [2]: 7-12 nm
- support of cell growth ([3]; L929 cells in peptide gels): unsuccessful in supporting cell growth

Molecule: CC(=O)N[C@@H](CO)C(=O)N[C@@H](CO)C(=O)N[C@@H](CCCNC(=N)N)C(=O)N[C@@H](Cc1ccccc1)C(=O)N[C@@H](CCCN)C(=O)N[C@@H](Cc1c[nH]c2ccccc12)C(=O)N[C@@H](CCCN)C(=O)N[C@@H](Cc1ccccc1)C(=O)N[C@@H](CCC(=O)O)C(=O)N[C@@H](CO)C(=O)N[C@@H](CO)C(N)=O [Peptide P11-12, CH3CO-S-S-R-F-O-W-O-F-E-S-S-NH2] (Ac-SSRF[Orn]W[Orn]FESS-NH2)
- Net charge at pH 7.5 [1]: +2
- L, fibril contour length [2]: 1.3-5 μm
- h, twist pitch [2]: 139-220 nm
- l, fibril persistence length [2]: 0.4-1.2 μm
- wn, width of the fibril at its narrowest point [2]: 5-7 nm
- ww, width of the fibril at its widest point [2]: 11-16 nm
- support of cell growth ([3]; L929 cells in peptide gels): unsuccessful in supporting cell growth

Molecule: CC(=O)N[C@H](C(=O)N[C@H](C(=O)N[C@@H](CCCNC(=N)N)C(=O)N[C@@H](Cc1ccccc1)C(=O)N[C@@H](CCC(=O)O)C(=O)N[C@@H](Cc1c[nH]c2ccccc12)C(=O)N[C@@H](CCC(=O)O)C(=O)N[C@@H](Cc1ccccc1)C(=O)N[C@@H](CCC(=O)O)C(=O)N[C@H](C(=O)N[C@H](C(N)=O)[C@@H](C)O)[C@@H](C)O)[C@@H](C)O)[C@@H](C)O [Peptide P11-17, CH3CO-T-T-R-F-E-W-E-F-E-T-T-NH2] (Ac-TTRFEWEFETT-NH2)
- Net charge at pH 7.5 [1]: −2
- L, fibril contour length [2]: 1.3-4.5 μm
- h, twist pitch [2]: 150-236 nm
- l, fibril persistence length [2]: 0.3-1.7 μm
- wn, width of the fibril at its narrowest point [2]: 5-10 nm
- ww, width of the fibril at its widest point [2]: 10-16 nm

Molecule: CC(=O)N[C@H](C(=O)N[C@H](C(=O)N[C@@H](CCCNC(=N)N)C(=O)N[C@@H](Cc1ccccc1)C(=O)N[C@@H](CCCN)C(=O)N[C@@H](Cc1c[nH]c2ccccc12)C(=O)N[C@@H](CCCN)C(=O)N[C@@H](Cc1ccccc1)C(=O)N[C@@H](CCC(=O)O)C(=O)N[C@H](C(=O)N[C@H](C(N)=O)[C@@H](C)O)[C@@H](C)O)[C@@H](C)O)[C@@H](C)O [Peptide P11-18, CH3CO-T-T-R-F-O-W-O-F-E-T-T-NH2] (Ac-TTRF[Orn]W[Orn]FETT-NH2)
- Net charge at pH 7.5 [1]: +2
- L, fibril contour length [2]: 1.4-4.2 μm
- h, twist pitch [2]: 142-236 nm
- l, fibril persistence length [2]: 0.5-1.7 μm
- wn, width of the fibril at its narrowest point [2]: 7-11 nm
- ww, width of the fibril at its widest point [2]: 11-21 nm
- support of cell growth ([3]; L929 cells in peptide gels): unsuccessful in supporting cell growth

Molecule: CC(=O)N[C@@H](CCC(N)=O)C(=O)N[C@@H](CCC(N)=O)C(=O)N[C@@H](CCCNC(=N)N)C(=O)N[C@@H](CCC(N)=O)C(=O)N[C@@H](CCCN)C(=O)N[C@@H](CCC(N)=O)C(=O)N[C@@H](CCCN)C(=O)N[C@@H](CCC(N)=O)C(=O)N[C@@H](CCC(=O)O)C(=O)N[C@@H](CCC(N)=O)C(=O)N[C@@H](CCC(N)=O)C(N)=O [Peptide P11-19, CH3CO-Q-Q-R-Q-O-Q-O-Q-E-Q-Q-NH2] (Ac-QQRQ[Orn]Q[Orn]QEQQ-NH2)
- Net charge at pH 7.5 [1]: +2
- L, fibril contour length [2]: 1.5-3 μm
- h, twist pitch [2]: 206-356 nm
- l, fibril persistence length [2]: 0.5-1 μm
- wn, width of the fibril at its narrowest point [2]: 7-13 nm
- ww, width of the fibril at its widest point [2]: 15-22 nm
- peptide concentration for self-supporting gel [4]: 60 mg/mL
- self-assembly / gelation at 30 mg·ml^−1 ([4]; physiological solution, 30 mg·ml^−1): does not self assemble; also recorded: did not gel

Molecule: CC(=O)N[C@@H](CCC(N)=O)C(=O)N[C@@H](CCC(N)=O)C(=O)N[C@@H](CCCNC(=N)N)C(=O)N[C@@H](CCC(N)=O)C(=O)N[C@@H](CCC(=O)O)C(=O)N[C@@H](CCC(N)=O)C(=O)N[C@@H](CCC(=O)O)C(=O)N[C@@H](CCC(N)=O)C(=O)N[C@@H](CCC(=O)O)C(=O)N[C@@H](CCC(N)=O)C(=O)N[C@@H](CCC(N)=O)C(N)=O [Peptide P11-20, CH3CO-Q-Q-R-Q-E-Q-E-Q-E-Q-Q-NH2] (Ac-QQRQEQEQEQQ-NH2)
- Net charge at pH 7.5 [1]: −2
- L, fibril contour length [2]: 0.9-2.8 μm
- h, twist pitch [2]: 202-363 nm
- l, fibril persistence length [2]: 0.4-1.5 μm
- wn, width of the fibril at its narrowest point [2]: 8-15 nm
- ww, width of the fibril at its widest point [2]: 14-20 nm
- peptide concentration for self-supporting gel [4]: > 20 mg/mL
- support of cell growth ([3]; L929 cells in peptide gels): supported cell growth reasonably well
- macroscopic appearance of gel ([3]; at end of cell culture experiment): some signs of macroscopic degradation

Molecule: O=C(O)C(F)(F)F [TFA]
- support of cell growth ([3]; collagen gels supplemented with 0.9 mg·ml^−1 TFA): supported cell growth with no obvious detrimental effect on the cells
- support of cell growth ([3]; collagen gels supplemented with 5.1 mg·ml^−1 TFA): supported cell growth with no visible detrimental effect on cell growth

Molecule: CH3CO-E-Q-E-F-E-W-E-F-E-Q-E-HN2 (Ac-EQEFEWEFEQE-NH2) [Peptide P11-13]
- Net charge at pH 7.5 [1]: -6

Molecule: CH3CO-Q-Q-O-F-O-W-O-F-O-Q-Q-NH2 (Ac-QQ[Orn]F[Orn]W[Orn]F[Orn]QQ-NH2; SMILES CC(=O)N[C@@H](CCC(N)=O)C(=O)N[C@@H](CCC(N)=O)C(=O)N[C@@H](CCCN)C(=O)N[C@@H](Cc1ccccc1)C(=O)N[C@@H](CCCN)C(=O)N[C@@H](Cc1c[nH]c2ccccc12)C(=O)N[C@@H](CCCN)C(=O)N[C@@H](Cc1ccccc1)C(=O)N[C@@H](CCCN)C(=O)N[C@@H](CCC(N)=O)C(=O)N[C@@H](CCC(N)=O)C(N)=O) [Peptide P11-14]
- Net charge at pH 7.5 [1]: +4

Molecule: CH3CO-Q-Q-R-F-E-W-E-F-E-Q-Q-NH2 (Ac-QQRFEWEFEQQ-NH2) [Peptide P11-4]
- Net charge at pH 7.5 [1]: −2
- L, fibril contour length [2]: 1.2-7 μm
- h, twist pitch [2]: 132-360 nm
- l, fibril persistence length [2]: 0.7-1.4 μm
- wn, width of the fibril at its narrowest point [2]: 5.5-8 nm
- ww, width of the fibril at its widest point [2]: 8-14 nm

Molecule: QQE^-FE^-WE^-FE^±QQ (QQEFEWEFEQQ; self assembling peptide P11-23)
- Net charge at pH 7.5 [1]: -4

Molecule: QQO^+FO^+WO^+FQQQ (QQ[Orn]F[Orn]W[Orn]FQQQ; not fully specified (N-terminus, C-terminus); printed as QQO+FO+WO+FQQQ) [Peptide P11-5]
- Net charge at pH 7.5 [1]: +3

Molecule: QQQFE^-WE^-FE^±QQ (QQQFEWEFEQQ; self assembling peptide P11-22)
- Net charge at pH 7.5 [1]: -3

Molecule: QQQFQWQFE^-QQ (QQQFQWQFEQQ; self assembling peptide P11-21)
- Net charge at pH 7.5 [1]: -1

Molecule: QQR^+FQWQFQQQ (QQRFQWQFQQQ; self assembling peptide P11-3)
- fibrils and gels after sterilisation using an autoclave ([4]; cell media): reform after sterilisation using an autoclave
- effect on tissue surrounding the injection site by histology [5]: no effect
